Source: ChEMBL document CHEMBL1201862, “PubChem BioAssay data set” (2004)
The source made the active and inactive calls.

Experiments:
[1] = system: Streptococcus sp. 'group A'; assay: Streptococcus pyogenes SK(-)GAS viability under kanamycin – luminescence, BacTiterGlo, confirmation, counter-screen for streptokinase expression inhibitor project, dose response (AID 1900); assay type: functional, organism-based
[2] = molecular target: T1, Mannose-6-phosphate isomerase (Homo sapiens, UniProt P34949); assay: MPI inhibition at elevated mannose 6-phosphate – biochemical, fluorescence intensity, high mannose 6-phosphate, primary screen (AID 1220)
T1 sequence (P34949 whole entry): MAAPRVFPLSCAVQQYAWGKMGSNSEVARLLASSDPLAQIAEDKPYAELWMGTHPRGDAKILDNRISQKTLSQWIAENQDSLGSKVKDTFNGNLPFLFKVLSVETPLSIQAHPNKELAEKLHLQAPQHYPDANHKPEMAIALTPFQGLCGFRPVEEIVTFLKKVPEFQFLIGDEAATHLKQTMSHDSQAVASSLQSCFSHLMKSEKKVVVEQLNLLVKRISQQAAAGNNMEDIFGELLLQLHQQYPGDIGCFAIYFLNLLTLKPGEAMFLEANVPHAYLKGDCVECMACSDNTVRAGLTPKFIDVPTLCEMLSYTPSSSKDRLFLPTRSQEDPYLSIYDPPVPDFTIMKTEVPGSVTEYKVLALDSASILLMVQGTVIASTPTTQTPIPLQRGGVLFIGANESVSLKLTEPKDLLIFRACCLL

[3] = molecular target: T2, Tyrosine-protein phosphatase non-receptor type 22 (Homo sapiens, UniProt Q9Y2R2); assay type: functional;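 further: confirmatory dose-response retest of primary uHTS hits for inhibition of LYP phosphatase, measured by a fluorescence intensity read-out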
T2 sequence (Q9Y2R2 whole entry): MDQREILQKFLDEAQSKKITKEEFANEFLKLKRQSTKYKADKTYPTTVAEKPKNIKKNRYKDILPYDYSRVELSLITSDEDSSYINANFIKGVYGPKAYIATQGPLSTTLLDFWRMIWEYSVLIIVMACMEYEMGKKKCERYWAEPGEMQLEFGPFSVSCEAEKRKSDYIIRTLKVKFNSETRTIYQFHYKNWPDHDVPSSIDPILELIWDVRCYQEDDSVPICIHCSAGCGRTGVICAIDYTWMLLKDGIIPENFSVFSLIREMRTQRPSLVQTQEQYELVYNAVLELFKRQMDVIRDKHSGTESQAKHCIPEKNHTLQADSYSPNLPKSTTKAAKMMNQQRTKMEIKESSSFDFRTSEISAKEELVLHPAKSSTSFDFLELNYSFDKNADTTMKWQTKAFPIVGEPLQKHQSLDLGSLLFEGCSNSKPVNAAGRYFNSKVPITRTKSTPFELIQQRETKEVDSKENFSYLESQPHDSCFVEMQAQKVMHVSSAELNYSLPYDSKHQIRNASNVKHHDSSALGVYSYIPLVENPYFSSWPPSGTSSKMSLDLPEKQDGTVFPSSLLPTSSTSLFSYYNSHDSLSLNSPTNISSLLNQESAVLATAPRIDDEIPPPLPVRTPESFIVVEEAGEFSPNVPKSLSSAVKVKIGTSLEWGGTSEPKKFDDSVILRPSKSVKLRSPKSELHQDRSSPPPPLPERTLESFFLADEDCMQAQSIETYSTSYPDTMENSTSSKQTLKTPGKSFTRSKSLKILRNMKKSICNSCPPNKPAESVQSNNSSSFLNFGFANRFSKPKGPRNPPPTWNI

[4] = molecular target: Ras and Rab interactor 1/Tyrosine-protein kinase ABL1 (Homo sapiens, UniProt P00519+Q13671); assay type: functional;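 further: biochemical TR-FRET dose-response test measuring inhibition of binding between Rin1 and Abl proteins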
Ras and Rab interactor 1/Tyrosine-protein kinase ABL1, sequence (P00519 whole entry): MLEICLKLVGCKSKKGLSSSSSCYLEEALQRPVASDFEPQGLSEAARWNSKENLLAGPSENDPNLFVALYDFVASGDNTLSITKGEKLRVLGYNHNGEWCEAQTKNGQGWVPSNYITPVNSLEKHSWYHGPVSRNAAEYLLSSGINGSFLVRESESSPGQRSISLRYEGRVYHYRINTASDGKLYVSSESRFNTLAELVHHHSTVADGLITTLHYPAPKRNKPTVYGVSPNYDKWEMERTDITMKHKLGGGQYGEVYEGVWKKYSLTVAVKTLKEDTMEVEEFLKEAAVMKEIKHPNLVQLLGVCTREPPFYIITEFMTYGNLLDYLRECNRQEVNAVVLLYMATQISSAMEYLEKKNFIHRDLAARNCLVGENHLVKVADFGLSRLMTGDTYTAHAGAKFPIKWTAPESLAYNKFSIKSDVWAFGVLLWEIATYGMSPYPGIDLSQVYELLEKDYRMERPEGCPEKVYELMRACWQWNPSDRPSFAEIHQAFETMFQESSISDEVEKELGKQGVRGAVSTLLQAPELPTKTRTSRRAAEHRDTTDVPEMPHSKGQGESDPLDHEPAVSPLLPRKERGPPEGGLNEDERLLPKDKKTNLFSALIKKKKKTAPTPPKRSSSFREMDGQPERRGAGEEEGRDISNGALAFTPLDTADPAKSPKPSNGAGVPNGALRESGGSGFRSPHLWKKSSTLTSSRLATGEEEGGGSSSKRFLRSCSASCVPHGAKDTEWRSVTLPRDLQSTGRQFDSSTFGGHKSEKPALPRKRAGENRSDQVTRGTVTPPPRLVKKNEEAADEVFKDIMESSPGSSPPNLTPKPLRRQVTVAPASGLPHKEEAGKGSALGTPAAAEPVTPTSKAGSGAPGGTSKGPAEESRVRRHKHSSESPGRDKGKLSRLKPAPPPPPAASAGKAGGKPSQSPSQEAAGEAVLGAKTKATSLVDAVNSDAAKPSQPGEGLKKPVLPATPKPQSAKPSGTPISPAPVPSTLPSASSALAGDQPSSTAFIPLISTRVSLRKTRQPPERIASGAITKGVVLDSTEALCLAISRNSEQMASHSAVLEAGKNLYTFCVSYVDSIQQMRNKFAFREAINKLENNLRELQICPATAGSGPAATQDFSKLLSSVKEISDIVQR
Ras and Rab interactor 1/Tyrosine-protein kinase ABL1, sequence (Q13671 whole entry): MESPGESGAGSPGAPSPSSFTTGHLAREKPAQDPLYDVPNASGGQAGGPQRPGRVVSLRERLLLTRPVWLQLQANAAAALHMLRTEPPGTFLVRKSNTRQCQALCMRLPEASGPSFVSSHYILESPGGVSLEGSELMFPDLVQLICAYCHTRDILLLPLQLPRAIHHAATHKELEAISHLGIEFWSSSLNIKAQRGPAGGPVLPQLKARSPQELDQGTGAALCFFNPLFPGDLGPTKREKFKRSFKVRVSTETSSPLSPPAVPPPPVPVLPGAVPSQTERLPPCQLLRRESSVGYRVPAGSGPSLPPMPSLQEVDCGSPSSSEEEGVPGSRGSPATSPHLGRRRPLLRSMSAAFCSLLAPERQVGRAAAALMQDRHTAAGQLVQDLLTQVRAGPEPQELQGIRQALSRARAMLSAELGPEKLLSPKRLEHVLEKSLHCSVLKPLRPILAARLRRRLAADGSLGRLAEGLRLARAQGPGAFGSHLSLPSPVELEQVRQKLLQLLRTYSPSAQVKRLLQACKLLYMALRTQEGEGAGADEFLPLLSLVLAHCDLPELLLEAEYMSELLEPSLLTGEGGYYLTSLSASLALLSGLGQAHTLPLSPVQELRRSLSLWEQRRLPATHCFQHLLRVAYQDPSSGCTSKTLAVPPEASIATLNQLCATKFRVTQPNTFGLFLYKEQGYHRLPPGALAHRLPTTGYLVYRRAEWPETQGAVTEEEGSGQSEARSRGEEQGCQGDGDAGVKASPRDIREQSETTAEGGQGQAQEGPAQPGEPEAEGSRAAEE

Vero = assay: viability of Vero cells under compound – cytotoxicity control for flavivirus capping enzyme inhibitors (AID 588742); assay type: functional; details: Chlorocebus sabaeus
[5] = molecular target: T3, Endoribonuclease toxin MazF (Escherichia coli K-12, UniProt P0AE70); assay: activation of MazEF endoribonuclease cleavage – biochemical, fluorescence, single-stranded RNA substrate, uHTS hits, dose response (AID 588481); assay type: functional
T3 sequence (P0AE70 whole entry): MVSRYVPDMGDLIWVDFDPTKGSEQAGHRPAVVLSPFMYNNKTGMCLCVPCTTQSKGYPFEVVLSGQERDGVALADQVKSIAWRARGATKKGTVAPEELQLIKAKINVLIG

[6] = molecular target: T4, 1-phosphatidylinositol 4,5-bisphosphate phosphodiesterase beta-3 (Homo sapiens, UniProt Q01970); assay: Fluorescence-based biochemical high throughput dose response assay to identify inhibitors of phospholipase C isozymes (PLC-B3).
T4 sequence (Q01970 whole entry): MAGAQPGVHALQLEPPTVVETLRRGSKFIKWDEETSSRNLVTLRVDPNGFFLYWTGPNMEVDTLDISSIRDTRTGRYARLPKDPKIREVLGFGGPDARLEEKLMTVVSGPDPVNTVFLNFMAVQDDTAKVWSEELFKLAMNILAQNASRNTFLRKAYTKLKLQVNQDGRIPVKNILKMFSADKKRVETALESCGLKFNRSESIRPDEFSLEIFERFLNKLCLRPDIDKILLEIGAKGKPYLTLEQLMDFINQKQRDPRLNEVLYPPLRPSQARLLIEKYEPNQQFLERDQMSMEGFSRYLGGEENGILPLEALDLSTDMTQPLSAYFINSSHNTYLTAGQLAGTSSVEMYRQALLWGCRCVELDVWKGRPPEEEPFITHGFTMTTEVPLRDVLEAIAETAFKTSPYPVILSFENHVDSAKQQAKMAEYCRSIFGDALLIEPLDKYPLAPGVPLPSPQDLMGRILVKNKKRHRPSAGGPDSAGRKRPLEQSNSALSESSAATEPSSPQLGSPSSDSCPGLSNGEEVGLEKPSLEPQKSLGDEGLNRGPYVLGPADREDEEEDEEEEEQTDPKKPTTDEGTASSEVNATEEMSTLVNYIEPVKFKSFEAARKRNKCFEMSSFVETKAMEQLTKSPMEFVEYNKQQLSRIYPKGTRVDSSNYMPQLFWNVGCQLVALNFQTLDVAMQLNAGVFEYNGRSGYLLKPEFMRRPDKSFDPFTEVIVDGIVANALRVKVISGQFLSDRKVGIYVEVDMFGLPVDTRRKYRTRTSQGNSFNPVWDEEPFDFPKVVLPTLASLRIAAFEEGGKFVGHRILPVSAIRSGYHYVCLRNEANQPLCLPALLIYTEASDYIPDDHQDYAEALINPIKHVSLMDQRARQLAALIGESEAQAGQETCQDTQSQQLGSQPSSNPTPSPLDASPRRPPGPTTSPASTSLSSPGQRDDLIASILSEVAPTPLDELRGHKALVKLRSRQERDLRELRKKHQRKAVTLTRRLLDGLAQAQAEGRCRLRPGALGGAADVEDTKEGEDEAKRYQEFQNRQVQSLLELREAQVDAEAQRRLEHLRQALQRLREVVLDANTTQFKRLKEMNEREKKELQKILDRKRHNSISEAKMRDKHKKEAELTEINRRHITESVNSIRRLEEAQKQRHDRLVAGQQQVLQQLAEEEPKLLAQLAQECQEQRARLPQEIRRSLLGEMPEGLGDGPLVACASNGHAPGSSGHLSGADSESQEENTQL

Q: What does the source list for Cc1nc2c(=O)n(C)c(=O)nc-2n(C)n1?
A: EC50 [1]: 4.74 µM (active); IC50 [2]: 6.09 µM (active); IC50 [3]: < 1.24 µM (active); IC50 [4]: 302 nM (active)

Q: What does the source list for O=C1C=C(c2c(O)ccc3ccccc23)c2ccccc2C1=O?
A: CC50 (Vero): 22.1 µM (active); EC50 [5]: 7.31 µM (active)

Q: How did the IC50 [6] turn out when O=C(CCN1C(=O)/C(=C\c2ccco2)SC1=S)Nc1ccc(C(=O)O)c(O)c1 was run?
A: > 122 µM (inactive)
